Source: patent publication US5719151A, “Substituted benzene compounds” (priority 1990, dated 1998)
Each block holds one molecule with its values, some of them ahead of it.

Experiments:
[1] = target: T1, poly(ADP-ribose)polymerase (Homo sapiens, UniProt P09874); experiment: Determination of inhibitory effect on poly(ADP-ribose)polymerase (enzyme activity, Ki, Km); format: biochemical; conditions: for Ki: poly(ADP-ribose)polymerase, read-out: Ki (Inhibition Constant); for inhibition at 5 µM / inhibition at 1 µM / inhibition at 2.5 µM: read-out: Inhibitor Activity (%)
T1 sequence (P09874 whole entry): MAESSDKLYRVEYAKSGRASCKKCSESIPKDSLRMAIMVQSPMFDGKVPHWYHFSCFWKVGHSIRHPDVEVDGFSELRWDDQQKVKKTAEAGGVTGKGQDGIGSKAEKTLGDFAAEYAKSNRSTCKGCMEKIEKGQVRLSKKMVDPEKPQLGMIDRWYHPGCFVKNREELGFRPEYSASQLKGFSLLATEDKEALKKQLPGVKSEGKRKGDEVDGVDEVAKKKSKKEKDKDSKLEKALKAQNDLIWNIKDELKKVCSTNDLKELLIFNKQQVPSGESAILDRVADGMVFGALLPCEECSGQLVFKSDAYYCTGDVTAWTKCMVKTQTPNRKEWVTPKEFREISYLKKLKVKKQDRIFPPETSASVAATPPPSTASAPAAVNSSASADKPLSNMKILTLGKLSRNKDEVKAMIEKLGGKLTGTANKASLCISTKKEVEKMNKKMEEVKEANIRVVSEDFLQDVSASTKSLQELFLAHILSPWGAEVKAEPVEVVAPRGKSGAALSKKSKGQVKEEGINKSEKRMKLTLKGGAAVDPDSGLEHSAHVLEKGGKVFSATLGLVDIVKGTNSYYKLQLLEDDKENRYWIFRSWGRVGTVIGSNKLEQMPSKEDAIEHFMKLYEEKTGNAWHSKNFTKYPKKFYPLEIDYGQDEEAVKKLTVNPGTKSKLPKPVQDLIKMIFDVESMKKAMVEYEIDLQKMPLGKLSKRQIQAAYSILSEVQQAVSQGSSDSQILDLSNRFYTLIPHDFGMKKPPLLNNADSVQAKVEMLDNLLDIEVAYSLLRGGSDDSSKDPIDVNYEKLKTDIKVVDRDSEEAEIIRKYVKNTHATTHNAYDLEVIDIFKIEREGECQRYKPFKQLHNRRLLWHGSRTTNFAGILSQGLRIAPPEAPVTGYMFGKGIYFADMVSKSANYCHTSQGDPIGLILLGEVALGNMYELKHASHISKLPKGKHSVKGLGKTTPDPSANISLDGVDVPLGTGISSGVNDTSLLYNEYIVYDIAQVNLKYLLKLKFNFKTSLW
Experimental: The enzyme activity was assayed by standard procedures (Murray, B. et al., Mutation Research (1986) 165:191-198). This reference also describes the estimation of the Km (Michaelis Constant) values. The estimation of the Ki (inhibitory constant) values was performed by calculating the Km value in the presence or absence of known concentrations of the enzyme inhibitor. Standard biochemical calculations were then used to calculate the Ki value. The smaller K1 values indicate stronger inhibition. The degree of enzyme inhibition shown in the Table was estimated by measuring the enzyme activity in the presence and absence of the indicated concentrations of inhibitor.

[2] = test system: nuclear poly(ADP-Ribose)polymerase; conditions: Oikawa 1980; Lindahl-Kiessling & Shall 1987; cited from earlier work
[3] = target: T1, poly(ADP-ribose)polymerase; conditions: Farzeneh 1988, cited from earlier work
[4] = target: T1, poly(ADP-ribose)polymerase; experiment: Formation of covalent compounds (with the enzyme); format: biochemical; conditions: for covalent compound with the enzyme: specific covalent inhibition
[5] = test system: Trypanosoma brucei rhodesiense; experiment: Growth of Trypanosoma brucei rhodesiense in axenic culture (growth inhibition); format: cell-based
Experimental: 1. TRYPANOSOMES: Stabilates of two clones, GUP 2889 and GUP 2814 were used.
Prior to propagation in vitro cell free culture conditions the parasites from stabilates were expanded in CD1 (8-9 week old) female mice. Infected mouse blood obtained by cardiac puncture in EMEM* with 20 U/ml heparin was used for the preparation of blood smears for immunofluorescence analysis.
Antibody mediated lysis of a specific VAT of bloodstream form trypanosomes was performed by incubating an appropriate aliquot of a recently prepared trypanosome suspension at room temperature for 1 hour, in appropriately diluted specific antibody and guinea pig complement. The trypanosomes were observed and counted with inverted phase-contrast microscopy at a magnification of 150× to check for viability and to observe lysed trypanosomes, which appeared stumpy and vacuolated.
Cultures were initiated with aliquots of the above prepared trypanosome suspension. Duplicate T25 flasks, with 10 ml of medium were prepared for each experimental parameter examined. In each experiment the trypanosome density was determined at the initiation of the culture and at the end of the axenic culture period (usually after 18-24 hours) using a Neubaurer haemocytometer.
The instantaneous rate of switching/cell/generation, σi, has been calculated. These values of σ are estimates of the per capita rate for switching to minor VATs. However, these estimates have been made in populations manipulated to consist of a major VAT, the prevalence of which is much higher than that of minor VATs; switching from minor to major VATs has therefore been assumed to be negligible, as has interswitching between minor VATs. Growth rates, r, have been expressed as population doubling times Td, where Td=loge2/r. Switching rates values are presented in the tables as finite, of, rate estimates.
Two clones of Trypanosoma brucei rhodesiense, GUP 2889 and […] were initiated in culture with viable trypanosomes after in vitro trypanolysis of heterotype VAT 1.22 with GUPM 27.1 monoclonal antibody. Viable populations of these trypanosomes were incubated with various concentrations of the poly(ADP-Ribose)polymerase inhibitors. The effect of each concentration of inhibitor was tested in duplicate in T25 culture flasks set up for the axenic culture inhibition experiments. Growth was monitored after 24 hours of incubation at 37° C. in 4-5% CO2 in air. Relative growth inhibition and frequency of antigenic switching of were calculated.
In this assay a continuously growing bloodstream form trypanosome population was incubated in serial inhibitor dilutions in T25 culture flasks using an inoculum of 2×10^4 ·1×10^5 trypanosomes per ml. After an incubation period of 24-48 hours in axenic culture at 37° C. in a 4-5% CO2 incubator, trypanosomes were counted using a haemocytometer and growth inhibition was determined based on the number of generations (kt) of inhibitor treated cultures compared to controls. […] Growth is reduced by up to 17% when 3-N-formylluminol(3-N-FL) is present in the concentration range of 50-400 μM, Table 7.

[6] = target: T1, poly(ADP-ribose)polymerase; conditions: X-ray or bleomycin exposure; cited from earlier work
[7] = test system: NC(=O)c1ccc[n+]([C@@H]2O[C@H](COP(=O)([O-])OP(=O)(O)OC[C@H]3O[C@@H](n4cnc5c(N)ncnc54)[C@H](O)[C@@H]3O)[C@@H](O)[C@H]2O)c1; experiment: Determination of inhibitory effect on poly(ADP-ribose)polymerase (enzyme activity, Ki, Km); format: biochemical; conditions: other: same assay as Table 5

Ki [1]: 3200 ± 410 nM
Molecule: CC(=O)Nc1cccc(C(N)=O)c1 [3-acetylaminobenzamide, reference compound]

Molecule: NC(=O)c1cccc(N)c1 [3-aminobenzamide]
spontaneous sister chromatid exchanges [2]: large increase in spontaneous sister chromatid exchanges

Molecule: COc1cccc(C(N)=O)c1 [3-methoxybenzamide]
integration of foreign DNA into the genome ([3]; non-homologous/illegitimate DNA recombination): blocked the integration of foreign DNA into the genome | uptake and expression of foreign DNA ([3]; introduced via plasmids): not affected

Ki [1]: 2490 ± 300 nM
Molecule: CCC(=O)Nc1cccc(C(N)=O)c1 [3-propionylaminobenzamide, reference compound]

Molecule: C=CC(=O)Nc1cccc(C(N)=O)c1 [Compound 4, 3-propenoylaminobenzamide]
covalent compound with the enzyme [4]: act by forming a covalent compound with the enzyme specifically and thus inhibit the enzyme

Molecule: NC(=O)c1cccc(NC(=O)CCCl)c1 [Compound 7]
covalent compound with the enzyme [4]: act by forming a covalent compound with the enzyme specifically and thus inhibit the enzyme

inhibition at 5 µM [1]: 61%
Molecule: NC(=O)Nc1cccc(C(N)=O)c1 [Compound 8, 3-ureidobenzamide]

inhibition at 5 µM [1]: 61%
Molecule: CNC(=O)Nc1cccc(C(N)=O)c1 [Compound 9, 3-methylureidobenzamide]

enzyme inhibition (in words) [1]: not enzyme inhibitors | ability to form covalent compounds [4]: form covalent compounds
Molecule: C=CC(=O)Nc1cccc(C(=O)O)c1 [Compound 12, 3-propenoylaminobenzoic acid]

Molecule: NC(=O)c1cccc(NC(=O)CCl)c1 [Compound 14, 3-chloroacetylaminobenzamide]
covalent compound with the enzyme [4]: act by forming a covalent compound with the enzyme specifically and thus inhibit the enzyme

Molecule: NC(=O)c1cccc(NC(=O)CBr)c1 [Compound 15, 3-bromoacetylaminobenzamide]
covalent compound with the enzyme [4]: act by forming a covalent compound with the enzyme specifically and thus inhibit the enzyme

Molecule: NC(=O)c1cccc(NC(=O)CCBr)c1 [Compound 16]
covalent compound with the enzyme [4]: act by forming a covalent compound with the enzyme specifically and thus inhibit the enzyme

Molecule: CN(N=O)C(=O)Nc1cccc(C(N)=O)c1 [Compound 19, 3(N-methyl,N-nitroso ureido)benzamide]
covalent compound with the enzyme [4]: act by forming a covalent compound with the enzyme specifically and thus inhibit the enzyme

Molecule: CN(N=O)C(=O)Nc1ccc(C(N)=O)cc1 [Compound 20, 4(N-methyl,N-nitroso ureido)benzamide]
enzyme inhibition (in words) [1]: not enzyme inhibitors | ability to form covalent compounds [4]: form covalent compounds

Molecule: CCOC(=O)c1cccc(NC(=O)N(C)N=O)c1 [Compound 21, Ethyl,3-(N-methyl,N-nitrosoureido)benzoate]
enzyme inhibition (in words) [1]: not enzyme inhibitors | ability to form covalent compounds [4]: form covalent compounds

Molecule: O=CNc1cccc2c(=O)[nH][nH]c(=O)c12 [Compound 22, 5-formylamino-2,3-dihydro-1,4-phthalazinedione]
growth reduced by up to ([5]; 50-400 μM): up to 17% | activity at 50 µM ([5]; Trypanosoma brucei, RHODESIENSE, 50 μM, n = 8, control 1.00, read-out: Relative Growth Rate (S.D., n)): 121 ± 13% | activity at 100 µM ([5]; Trypanosoma brucei, RHODESIENSE, 100 μM, n = 8, control 1.00, read-out: Relative Growth Rate (S.D., n)): 91 ± 22% | activity at 250 µM ([5]; Trypanosoma brucei, RHODESIENSE, 250 μM, n = 8, control 1.00, read-out: Relative Growth Rate (S.D., n)): 83 ± 42% | activity at 400 µM ([5]; Trypanosoma brucei, RHODESIENSE, 400 μM, n = 4, control 1.00, read-out: Relative Growth Rate (S.D., n)): 85 ± 4% | inhibition at 1 µM [1]: 54% | inhibition at 2.5 µM [1]: 71% | Ki [1]: 518 ± 40 nM

inhibition at 5 µM [1]: 32%
Molecule: N=C(N)Nc1cccc(C(N)=O)c1 [Compound 26, 3-(guanidino)benzamide]

inhibition at 1 µM [1]: 47% | inhibition at 2.5 µM [1]: 71% | inhibition at 5 µM [1]: 82%
Molecule: O=c1[nH]nc(O)c2cccc(O)c12 [Compound 27, 1,5-dihydroxy-3-hydro-4-phthalazinone]

Molecule: NC(=O)c1cccnc1 [nicotinamide]
recovery of the damaged cells [6]: inhibit recovery of the damaged cells

Molecule: poly(ADP-ribose)polymerase (Homo sapiens)
Km [7]: 100 ± 13.7 µM
